Experimental data from patent publication US8591877B2, “Cellulose-based nanoparticles for drug delivery” (Ontario Institute for Cancer Research, priority 2011, dated 2013).
Read-outs that look alike come from different tables or passages of the source.

Experiments:
[1] = doses of 210, 150, 300, and 233 mg/m^2 for PTX, NK105, Genexol, Opaxio respectively; cited from earlier work
[2] = tested on: EMT-6 murine mammary carcinoma cells; assay: In vitro cytotoxicity (IC50 analysis), XTT assay; format: cell-based; details: Mus musculus, EMT-6 (mammary)
Method: (§1) EMT-6 murine mammary carcinoma cells and LL/2 murine Lewis lung cell carcinoma cells were cultured in DMEM media (Invitrogen) with high glucose, supplemented with 10% FBS (Invitrogen), penicillin (100 U/ml) and streptomycin (100 μg/ml) (Invitrogen). The mouse mammary carcinoma cell line EMT-6 was a generous gift from Dr. David Stojdl at the CHEO Research Institute and Dr. Douglas Mahoney at the University of Ottawa. For plating, cells were released from the culture flask with trypsin (Invitrogen), resuspended at a concentration of 1×10^5 cell/mL, and 100 uL of cell suspension was added to the wells of 96 well polystyrene plate. The cells were maintained for 24 hours in culture (37° C., 5% CO2, humidified) before addition of particles. DTX solutions were made up in DMSO and diluted with media to form a 100 nM stock solution with 0.1% DMSO content. These DTX samples were 2× serially diluted with 0.1% DMSO media. Cellax particles were assayed for DTX content, and 10× serially diluted with media. The cultures were maintained for three days, at which time cell viability was assayed by the XTT assay. Briefly, a 1 mg/mL solution of XTT reagent (Sigma) in water was prepared, and phenazine (Sigma) was added just before analysis ([…]). The culture plates were incubated for two hours at 37° C., and absorbance of each well at 480 nm was then read. Wells treated with media (or 0.1% DMSO media) represent 100% viable cultures, and wells containing no cells represent background signal. In a parallel experiment, the DTX or Cellax-containing media were added to the EMT-6 and LL/2 cultures in four steps, with addition of ¼ the dose every 12 hours for two days. The data was analyzed in GraphPad Prism, and the IC50 for each system was calculated.

[3] = tested on: LL/2 murine Lewis lung cell carcinoma cells; assay: In vitro cytotoxicity (IC50 analysis), XTT assay; format: cell-based; details: Mus musculus, LL/2 (lung)
Method: as §1

[4] = Maximum tolerated dose (MTD) study in healthy mice; details: female, BALB/c, mouse, in vivo, iv; single i.v. dose, limit <5% body weight loss; read-out: MTD for docetaxel in mice
From the text: (§2) Female BALB/c and C57/BL6 mice (aged 6 weeks, 18-20 g) were purchased from The Jackson Laboratory (Bar Harbor, Me.). All experimental protocols in this study were approved by the Animal Care Committee of the University Health Network (Toronto, Ontario, Canada) in accordance with the policies established in the Guide to the Care and Use of Experimental Animals prepared by the Canadian Council of Animal Care. For each study, the DTX was formulated in a Tween80/ethanol/saline (20:13:67) solution (4 mg DTX/mL), and sterile filtered. The Cellax particles were adjusted to 4, 7.5 or 15 mg DTX/mL in saline and sterile filtered.
Tissues from mice (organs, bones, and tumors) were rinsed with saline and fixed in 10% formalin for 2 days, followed by storage in 70% ethanol. Preparation of tissues into slides was performed at the Toronto General Hospital Pathology Research Program lab (Toronto, ON). […] Prepared slides were analyzed on an Aperio Scanner at the Advanced Optical Microscopy Facility (AOMF) at the Princess Margaret Hospital (Toronto, ON). […] For TUNEL, Ki67, and CD31 stained samples, brown pixels were counted with the ImageScope Positive Pixel Count algorithm. For each tumor or organ analyzed, three tissue sections were each divided into three equal regions, generating n=9 data points. Image analysis output were positive pixel counts divided by the area analyzed. […]

EMT-6 flank tumors = assay: Subcutaneous flank tumor study, EMT-6; format: in vivo
From the text: as §2
Tissues from mice (organs, bones, and tumors) were rinsed with saline and fixed in 10% formalin for 2 days, followed by storage in 70% ethanol. […] Prepared slides were analyzed on an Aperio Scanner at the Advanced Optical Microscopy Facility (AOMF) at the Princess Margaret Hospital (Toronto, ON). […] For TUNEL, Ki67, and CD31 stained samples, brown pixels were counted with the ImageScope Positive Pixel Count algorithm. For each tumor or organ analyzed, three tissue sections were each divided into three equal regions, generating n=9 data points. Image analysis output were positive pixel counts divided by the area analyzed.
EMT-6 cells were cultured as described previously. […] The tumor size was measured by a caliper, and body weight was monitored. […]

LL/2 flank tumors = assay: Subcutaneous flank tumor study, LL/2; format: in vivo
[5] = tested on: EMT-6 cells (i.v. inoculated); assay: Metastatic tumor study, i.v. EMT-6 cells; format: in vivo, BALB/c mice
From the text: as §2
Healthy BALB/c mice received an i.v. dose of EMT-6 cells (in supplement free DMEM media) via tail vein injection (50 uL, 2.5×10^5 cell/mL), and one day following received a dose of Cellax (40 mg DTX/kg), 40 mg/kg DTX, or saline (n=10/group). A second dose (20 mg/kg DTX) was administered on day 7 post-cell injection. Mice were sacrificed when >20% body weight loss was recorded, or at the first signs of behavioral or mobility dysfunction. The lungs, heart, liver, kidneys, spleen, femurs, and brain were harvested for histological analysis. A Kaplan Meier plot of survival probability was generated from the survival data.

[6] = tested on: PAN02 cells (murine pancreatic cancer); assay: Intraperitoneal tumor model study, PAN02; format: in vivo, C57/BL6 mice; details: PAN02 i.p. model
From the text: as §2
PAN02 cells (murine pancreatic cancer) were cultured in RPMI 1640 supplemented with 10% FBS (Invitrogen), penicillin (100 U/ml) and streptomycin (100 μg/ml) (Invitrogen), and pyruvate (1 mM). Prior to inoculation, the cells were lifted from the culture plates with TrypLE Express (Invitrogen), and re-suspended in supplement free (no FBS, no antibiotics) RPMI media. The PAN02 cells (5×10^6 cells/mL, 0.5 mL) were injected into the intraperitoneal space of C57/BL6 mice. One day post-administration of the cells, the mice (n=3 per group) were treated with DTX (40 mg/kg), Cellax (40 mg DTX eqv/kg), or saline. Mice were sacrificed when >20% body weight loss was recorded, or at the first signs of behavioral or mobility dysfunction.

CC(=O)O[C@H]1C(=O)[C@@]2(C)[C@H]([C@H](OC(=O)c3ccccc3)[C@]3(O)C[C@H](OC(=O)[C@H](O)[C@@H](NC(=O)c4ccccc4)c4ccccc4)C(C)=C1C3(C)C)[C@]1(OC(C)=O)CO[C@@H]1C[C@@H]2O [PTX, paclitaxel]
half life [1]: 13.3 h

CC(=O)O[C@@]12CO[C@@H]1C[C@H](O)[C@@]1(C)C(=O)[C@H](O)C3=C(C)[C@@H](OC(=O)[C@H](O)[C@@H](NC(=O)OC(C)(C)C)c4ccccc4)C[C@@](O)([C@@H](OC(=O)c4ccccc4)[C@H]21)C3(C)C [DTX, Docetaxel]
IC50 ([2]; EMT6, 48 h, dose in four parts over two days, read-out: IC50 DTX (nM) Metronomic): 6 nM | IC50 ([2]; EMT6, single (bolus) dose, XTT, Cellax as DTX content, read-out: IC50): 80 nM | IC50 ([3]; 48 h, dose in four parts over two days, read-out: IC50 DTX (nM) Metronomic): 12 nM | IC50 ([3]; single (bolus) dose, XTT, Cellax as DTX content, read-out: IC50): 767 nM | MTD at 7 days [4]: 40 mg/kg | effect on tumor growth (EMT-6 flank tumors; EMT-6 flank model, single dose 40 mg/kg DTX (eqv), Cellax p<0.001 vs controls, p<0.05 vs DTX): minor (not significant) effect on tumour growth | tumor histology: apoptosis (TUNEL), cell replication (Ki67), angiogenesis (CD31) (EMT-6 flank tumors; EMT-6 tumors, 40 mg/kg, compared to DTX treated tumors and controls): caused necrosis/apoptosis | effect on tumor growth (LL/2 flank tumors; LL/2 flank model, single dose 40 mg/kg DTX (eqv)): did not alter tumor growth characteristics | tumor histology: necrosis (H&E) and TUNEL staining (LL/2 flank tumors; LL/2 tumors): positive TUNEL staining was minimal | median survival time ([5]; 40 mg/kg day 1, 20 mg/kg day 7, n=10/group): 9 days | onset of weight loss ([5]; metastatic EMT-6 model, 40 mg/kg): 6 days | signs of disease stress: parelsis (leg movements), piloerection ([5]; metastatic EMT-6 model, mice affected per group of 10): 4/10 | survival ([6]; 40 mg/kg): survival was significantly extended | weight loss or disease symptoms ([6]; 40 mg/kg (DTX eqv), n=3 per group): did not exhibit signs of weight loss or disease symptoms

Nc1ccn([C@@H]2O[C@H](CO)[C@@H](O)C2(F)F)c(=O)n1 [gemcitabine]
benefit of treatment ([6]; 120 mg/kg): did not confer significantly increased benefits
